From US20070128217A1 (priority 2003, published 2007)

Tests used:
[1] = test system: rabbit serum obtained by immunizing a rabbit with the SARS-CoV strain Frankfurt 1; format: binding; set-up: Binding of a rabbit serum to linear peptides / Binding of a rabbit serum to looped peptides / Rabbit serum linear peptides / Rabbit serum looped peptides / Binding of a rabbit serum to linear peptides of protein N of SARS-CoV Urbani (Rabbit serum linear peptides) / Binding of a rabbit serum to looped/cyclic peptides of protein N of SARS-CoV Urbani (Rabbit serum looped peptides): unit not given here
[2] = test system: antibodies in sera from SARS patients (sera 1a, 1b, 2, 6, 37, 62, London, SARS-yellow, SARS-green); format: binding, human; set-up: Binding of serum 6 to linear peptides of protein X1 of SARS-CoV Urbani / Binding of serum 37 to linear peptides of protein X1 of SARS-CoV Urbani / Binding of serum 6 to looped/cyclic peptide (PEPSCAN-ELISA) / Binding of serum 37 to looped/cyclic peptide (PEPSCAN-ELISA) / Binding of serum 37 to looped/cyclic peptides of protein X1 of SARS-CoV Urbani / Binding of serum 6 to linear peptides of protein X2 / Binding of serum 37 to linear peptides of protein X2 / Binding of serum 37 to looped/cyclic peptides of protein X2 of SARS-CoV Urbani / Binding of serum 6 to linear peptides of protein M of SARS-CoV Urbani / Binding of serum 37 to linear peptides of protein M of SARS-CoV Urbani / Binding of serum 6 to looped/cyclic peptides of protein M of SARS-CoV Urbani / Binding of serum 37 to looped/cyclic peptides of protein M of SARS-CoV Urbani / Binding of serum 6 to linear peptides of protein X3 of SARS-CoV Urbani / Binding of serum 37 to linear peptides of protein X3 of SARS-CoV Urbani / Binding of serum 37 to looped/cyclic peptides of protein X3 of SARS-CoV Urbani / Binding of serum 6 to linear peptides of protein X4 of SARS-CoV Urbani / Binding of serum 37 to linear peptides of protein X4 of SARS-CoV Urbani / Binding of serum 37 to looped/cyclic peptides of protein X4 of SARS-CoV Urbani / Binding of serum 6 to linear peptides of protein X5 of SARS-CoV Urbani / Binding of serum 37 to linear peptides of protein X5 of SARS-CoV Urbani / Binding of serum 37 to looped/cyclic peptides of protein X5 of SARS-CoV Urbani / Binding of serum 6 to linear peptides of protein N of SARS-CoV Urbani / Binding of serum 37 to linear peptides of protein N of SARS-CoV Urbani / Binding of serum 6 to linear peptide (PEPSCAN-ELISA) / Binding of serum 1a to looped/cyclic peptides of protein N of SARS-CoV Urbani / Binding of serum 1b to looped/cyclic peptides of protein N of SARS-CoV Urbani / Binding of serum 2 to looped/cyclic peptides of protein N of SARS-CoV Urbani / Binding of serum 6 to looped/cyclic peptides of protein N of SARS-CoV Urbani / Binding of serum 37 to looped/cyclic peptides of protein N of SARS-CoV Urbani / Binding of serum 62 to looped/cyclic peptides of protein N of SARS-CoV Urbani / Binding of serum London to looped/cyclic peptides of protein N of SARS-CoV Urbani / Binding of serum SARS-green to looped/cyclic peptides of protein N of SARS-CoV Urbani: unit not given here
[3] = test system: control sera (pooled serum of ten healthy LUMC hospital workers; commercial negative donor pooled serum from the Dutch bloodbank); format: binding, human; set-up: Binding of Control serum LUMC to linear peptides / Binding of Control serum Blood-bank to linear peptides / Binding of Control serum LUMC to looped peptides / Binding of Control Serum Blood-Bank to Looped peptides / Binding of Control serum LUMC to linear peptides of the protein M of SARS-CoV Urbani / Binding of Control serum Blood-bank to linear peptides of the protein M of SARS-CoV Urbani / Binding of Control serum LUMC to looped peptides of the protein M of SARS-CoV Urbani / Binding of Control Serum Blood-Bank to Looped peptides of the protein M of SARS-CoV Urbani: unit not given here

Row | Sequence | Binding of a rabbit serum to linear peptides [1] | Binding of a rabbit serum to looped peptides [1] | Binding of serum 1a to linear peptides of protein X1 of SARS-CoV Urbani [2] | Binding of serum 1b to linear peptides of protein X1 of SARS-CoV Urbani [2] | Binding of serum 2 to linear peptides of protein X1 of SARS-CoV Urbani [2] | Binding of serum 6 to linear peptides of protein X1 of SARS-CoV Urbani [2] | Binding of serum 37 to linear peptides of protein X1 of SARS-CoV Urbani [2] | Binding of serum 62 to linear peptides of protein X1 of SARS-CoV Urbani [2] | Binding of serum London to linear peptides of protein X1 of SARS-CoV Urbani [2] | Binding of serum SARS-green to linear peptides of protein X1 of SARS-CoV Urbani [2] | Binding of serum SARS-yellow to linear peptides of protein X1 of SARS-CoV Urbani [2] | Binding of Control Serum Blood-Bank to Looped peptides [3] | Binding of Control serum Blood-bank to linear peptides [3] | Binding of Control serum LUMC to linear peptides [3] | Binding of Control serum LUMC to looped peptides [3] | Binding of serum 1a to looped/cyclic peptides of protein X2 of SARS-CoV Urbani [2] | Binding of serum 1b to looped/cyclic peptides of protein X2 of SARS-CoV Urbani [2] | Binding of serum 2 to looped/cyclic peptides of protein X2 of SARS-CoV Urbani [2] | Binding of serum 6 to looped/cyclic peptides of protein X2 of SARS-CoV Urbani [2] | Binding of serum 37 to looped/cyclic peptides of protein X2 of SARS-CoV Urbani [2] | other results
1 | HGYFTEVYYQLESTQ | 0.1 | 0.5 | 0.6 | 0.4 | 0.4 | 0.3 | 0.4 | 0.4 | 0.2 | 0.2 | 0.0 | 0.5 | 0.4 | 0.3 | 0.5 | – | – | – | – | – | Binding of serum 1a to looped/cyclic peptides of protein X1 of SARS-CoV Urbani [2]: 0.5; Binding of serum 1b to looped/cyclic peptides of protein X1 of SARS-CoV Urbani [2]: 0.4; Binding of serum 2 to looped/cyclic peptides of protein X1 of SARS-CoV Urbani [2]: 0.4; Binding of serum 6 to looped/cyclic peptides of protein X1 of SARS-CoV Urbani [2]: 0.3; Binding of serum 37 to looped/cyclic peptides of protein X1 of SARS-CoV Urbani [2]: 0.5; Binding of serum 62 to looped/cyclic peptides of protein X1 of SARS-CoV Urbani [2]: 0.5; Binding of serum London to looped/cyclic peptides of protein X1 of SARS-CoV Urbani [2]: 0.2; Binding of serum SARS-green to looped/cyclic peptides of protein X1 of SARS-CoV Urbani [2]: 0.3; Binding of serum SARS-yellow to looped/cyclic peptides of protein X1 of SARS-CoV Urbani [2]: 0.4
2 | HITMTTVYHITVSQI | 0.7 | 0.4 | – | – | – | – | – | – | – | – | – | 0.7 | 0.5 | 0.5 | 0.6 | 0.6 | 0.6 | 0.3 | 0.3 | 0.6 | Binding of serum 1a to linear peptides of protein X2 [2]: 0.6; Binding of serum 1b to linear peptides of protein X2 [2]: 0.6; Binding of serum 2 to linear peptides of protein X2 [2]: 0.5; Binding of serum 6 to linear peptides of protein X2 [2]: 0.4; Binding of serum 37 to linear peptides of protein X2 [2]: 0.6; Binding of serum 62 to linear peptides of protein X2 [2]: 0.3; Binding of serum 62 to looped/cyclic peptides of protein X2 of SARS-CoV Urbani [2]: 0.7; Binding of serum London to linear peptides of protein X2 [2]: 0.4; Binding of serum London to looped/cyclic peptides of protein X2 of SARS-CoV Urbani [2]: 0.2; Binding of serum SARS-green to linear peptides of protein X2 [2]: 0.2; Binding of serum SARS-green to looped/cyclic peptides of protein X2 of SARS-CoV Urbani [2]: 0.4; Binding of serum SARS-yellow to linear peptides of protein X2 [2]: 0.7; Binding of serum SARS-yellow to looped/cyclic peptides of protein X2 of SARS-CoV Urbani [2]: 0.5
3 | HKKVSTNLCTHSFRK | 0.4 | 0.1 | – | – | – | – | – | – | – | – | – | 0.5 | 0.8 | 0.9 | 0.8 | 0.6 | 0.4 | 0.8 | 0.6 | 0.5 | Binding of serum 62 to looped/cyclic peptides of protein X2 of SARS-CoV Urbani [2]: 0.7; Binding of serum London to looped/cyclic peptides of protein X2 of SARS-CoV Urbani [2]: 0.3; Binding of serum SARS-green to looped/cyclic peptides of protein X2 of SARS-CoV Urbani [2]: 0.3; Binding of serum SARS-yellow to looped/cyclic peptides of protein X2 of SARS-CoV Urbani [2]: 0.6; Recognition of the peptide by sera of SARS-CoV infected individuals, and form (linear, looped/cyclic) in which it is recognized [2]: recognized in linear form
4 | HLLLVAAGMEAQFLY | 0.5 | 0.4 | 0.9 | 0.7 | 0.6 | 0.5 | 0.7 | 0.7 | 0.3 | 0.2 | 0.6 | 0.6 | 0.6 | 0.7 | 0.4 | – | – | – | – | – | Binding of serum 1a to looped/cyclic peptide (PEPSCAN-ELISA) [2]: 0.5; Binding of serum 1b to looped/cyclic peptide (PEPSCAN-ELISA) [2]: 0.6; Binding of serum 2 to looped/cyclic peptide (PEPSCAN-ELISA) [2]: 0.6; Binding of serum 6 to looped/cyclic peptide (PEPSCAN-ELISA) [2]: 0.1; Binding of serum 37 to looped/cyclic peptide (PEPSCAN-ELISA) [2]: 0.6; Binding of serum 62 to looped/cyclic peptide (PEPSCAN-ELISA) [2]: 0.6; Binding of serum London to looped/cyclic peptide (PEPSCAN-ELISA) [2]: 0.2; Binding of serum SARS-green to looped/cyclic peptide (PEPSCAN-ELISA) [2]: 0.4; Binding of serum SARS-yellow to looped/cyclic peptide (PEPSCAN-ELISA) [2]: 0.3
